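Protocol summary: plate cells (96-well), add compound at 5 concentrations, incubate 48 h, interpolate endpoints linearly. At the TGI there is no net growth.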
What was measured:
Assay in all cases: growth of human tumour cells (NCI), 48 h
786-0 renal = tested on: 786-0 renal
ACHN renal = tested on: ACHN renal
OVCAR-8 ovarian = tested on: OVCAR-8 ovarian
KM12 colon = tested on: KM12 colon
UACC-62 melanoma = tested on: UACC-62 melanoma
SK-OV-3 ovarian = tested on: SK-OV-3 ovarian
MDA-N = tested on: MDA-N
MDA-MB-435 = tested on: MDA-MB-435
SNB-19 CNS = tested on: SNB-19 CNS
CCRF-CEM leukemia = tested on: CCRF-CEM leukemia
SNB-75 CNS = tested on: SNB-75 CNS
CAKI-1 renal = tested on: CAKI-1 renal
NCI-H522 lung = tested on: NCI-H522 lung
SK-MEL-28 melanoma = tested on: SK-MEL-28 melanoma
HOP-92 NSCLC = tested on: HOP-92 NSCLC
OVCAR-4 ovarian = tested on: OVCAR-4 ovarian
SK-MEL-5 melanoma = tested on: SK-MEL-5 melanoma
NCI-H460 lung = tested on: NCI-H460 lung
SN12C renal = tested on: SN12C renal
MDA-MB-231 breast = tested on: MDA-MB-231 breast
SR leukemia = tested on: SR leukemia
SW-620 colon = tested on: SW-620 colon
PC-3 prostate = tested on: PC-3 prostate
RPMI-8226 leukemia = tested on: RPMI-8226 leukemia
OVCAR-5 ovarian = tested on: OVCAR-5 ovarian
TK-10 renal = tested on: TK-10 renal
NCI-H23 lung = tested on: NCI-H23 lung
HCT-116 colon = tested on: HCT-116 colon
RXF 393 renal = tested on: RXF 393 renal
MCF7 breast = tested on: MCF7 breast
K-562 leukemia = tested on: K-562 leukemia
SF-295 CNS = tested on: SF-295 CNS
LOX IMVI melanoma = tested on: LOX IMVI melanoma
MOLT-4 leukemia = tested on: MOLT-4 leukemia
M14 melanoma = tested on: M14 melanoma
HCC-2998 colon = tested on: HCC-2998 colon
UO-31 renal = tested on: UO-31 renal
SF-268 CNS = tested on: SF-268 CNS
UACC-257 melanoma = tested on: UACC-257 melanoma
DU-145 prostate = tested on: DU-145 prostate
HCT-15 colon = tested on: HCT-15 colon
HS 578T breast = tested on: HS 578T breast
HT29 colon = tested on: HT29 colon
U251 CNS = tested on: U251 CNS
A549 NSCLC = tested on: A549 NSCLC
SK-MEL-2 melanoma = tested on: SK-MEL-2 melanoma
NCI/ADR-RES ovarian = tested on: NCI/ADR-RES ovarian
EKVX NSCLC = tested on: EKVX NSCLC
MALME-3M melanoma = tested on: MALME-3M melanoma
NCI-H226 lung = tested on: NCI-H226 lung
IGROV1 ovarian = tested on: IGROV1 ovarian
A498 renal = tested on: A498 renal
COLO 205 colon = tested on: COLO 205 colon
SF-539 CNS = tested on: SF-539 CNS
OVCAR-3 ovarian = tested on: OVCAR-3 ovarian
HOP-62 NSCLC = tested on: HOP-62 NSCLC
HL-60(TB) leukemia = tested on: HL-60(TB) leukemia
T-47D breast = tested on: T-47D breast
BT-549 breast = tested on: BT-549 breast

NC(=O)C(N)CC12CC3CC(CC(C3)C1)C2 (configuration not stated)
TGI (786-0 renal): 40.7 µM
TGI (ACHN renal): > 100 µM
TGI (OVCAR-8 ovarian): 65.4 µM
TGI (KM12 colon): 47.8 µM
TGI (UACC-62 melanoma): 28.3 µM
TGI (SK-OV-3 ovarian): > 100 µM
TGI (MDA-N): 28.7 µM
TGI (MDA-MB-435): 44 µM
TGI (SNB-19 CNS): 54.6 µM
TGI (CCRF-CEM leukemia): 63.7 µM
TGI (SNB-75 CNS): > 100 µM
TGI (CAKI-1 renal): > 100 µM
TGI (NCI-H522 lung): 44.4 µM
TGI (SK-MEL-28 melanoma): 55.4 µM
TGI (HOP-92 NSCLC): 30.4 µM
TGI (OVCAR-4 ovarian): 64.7 µM
TGI (SK-MEL-5 melanoma): 28.5 µM
TGI (NCI-H460 lung): > 100 µM
TGI (SN12C renal): 41.2 µM
TGI (MDA-MB-231 breast): 41.7 µM
TGI (SR leukemia): 43.5 µM
TGI (SW-620 colon): > 100 µM
TGI (PC-3 prostate): 51.9 µM
TGI (RPMI-8226 leukemia): 47.3 µM
TGI (OVCAR-5 ovarian): 42.4 µM
TGI (TK-10 renal): 85.3 µM
TGI (NCI-H23 lung): 51.7 µM
TGI (HCT-116 colon): 30.7 µM
TGI (RXF 393 renal): 32.5 µM
TGI (MCF7 breast): 44.9 µM
TGI (K-562 leukemia): > 100 µM
TGI (SF-295 CNS): 54.9 µM
TGI (LOX IMVI melanoma): 29.9 µM
TGI (MOLT-4 leukemia): 58.1 µM
TGI (M14 melanoma): 37.4 µM
TGI (HCC-2998 colon): 49.3 µM
TGI (UO-31 renal): 44.2 µM
TGI (SF-268 CNS): 92.5 µM
TGI (UACC-257 melanoma): 76.7 µM
TGI (DU-145 prostate): 33.7 µM
TGI (HCT-15 colon): > 100 µM
TGI (HS 578T breast): 42.6 µM
TGI (HT29 colon): 72.6 µM
TGI (U251 CNS): 34.7 µM
TGI (A549 NSCLC): > 100 µM
TGI (SK-MEL-2 melanoma): 55 µM
TGI (NCI/ADR-RES ovarian): 91.7 µM
TGI (EKVX NSCLC): 97.5 µM

COC(=O)C1(C(=O)OC)CC(=O)c2c(OC(=O)c3cccc(OC)c3C#N)ccc(OC(=O)c3cccc(OC)c3C#N)c2C1
TGI (786-0 renal): > 100 µM
TGI (ACHN renal): > 100 µM
TGI (OVCAR-8 ovarian): > 100 µM
TGI (KM12 colon): > 100 µM
TGI (MALME-3M melanoma): > 100 µM
TGI (UACC-62 melanoma): > 100 µM
TGI (SK-OV-3 ovarian): > 100 µM
TGI (MDA-N): > 100 µM
TGI (MDA-MB-435): > 100 µM
TGI (SNB-19 CNS): > 100 µM
TGI (CCRF-CEM leukemia): > 100 µM
TGI (SNB-75 CNS): > 100 µM
TGI (NCI-H226 lung): > 100 µM
TGI (CAKI-1 renal): > 100 µM
TGI (NCI-H522 lung): > 100 µM
TGI (SK-MEL-28 melanoma): > 100 µM
TGI (IGROV1 ovarian): > 100 µM
TGI (A498 renal): > 100 µM
TGI (HOP-92 NSCLC): > 100 µM
TGI (OVCAR-4 ovarian): > 100 µM
TGI (SK-MEL-5 melanoma): > 100 µM
TGI (NCI-H460 lung): > 100 µM
TGI (SN12C renal): > 100 µM
TGI (COLO 205 colon): > 100 µM
TGI (MDA-MB-231 breast): > 100 µM
TGI (SR leukemia): > 100 µM
TGI (SW-620 colon): > 100 µM
TGI (PC-3 prostate): > 100 µM
TGI (RPMI-8226 leukemia): > 100 µM
TGI (SF-539 CNS): > 100 µM
TGI (OVCAR-5 ovarian): > 100 µM
TGI (TK-10 renal): > 100 µM
TGI (NCI-H23 lung): > 100 µM
TGI (HCT-116 colon): > 100 µM
TGI (RXF 393 renal): > 100 µM
TGI (MCF7 breast): > 100 µM
TGI (K-562 leukemia): > 100 µM
TGI (SF-295 CNS): > 100 µM
TGI (LOX IMVI melanoma): > 100 µM
TGI (MOLT-4 leukemia): > 100 µM
TGI (M14 melanoma): > 100 µM
TGI (OVCAR-3 ovarian): > 100 µM
TGI (HCC-2998 colon): > 100 µM
TGI (UO-31 renal): > 100 µM
TGI (SF-268 CNS): > 100 µM
TGI (HOP-62 NSCLC): > 100 µM
TGI (UACC-257 melanoma): > 100 µM
TGI (DU-145 prostate): > 100 µM
TGI (HCT-15 colon): > 100 µM
TGI (HS 578T breast): > 100 µM
TGI (HT29 colon): > 100 µM
TGI (U251 CNS): > 100 µM
TGI (A549 NSCLC): > 100 µM
TGI (NCI/ADR-RES ovarian): > 100 µM
TGI (EKVX NSCLC): > 100 µM
TGI (HL-60(TB) leukemia): > 100 µM

CC(NC(=O)OC(C)(C)C)C(=O)NC(Cc1ccccc1)C(=O)NCC(=O)ON=C1CCCC1 (configuration not stated)
TGI (786-0 renal): > 100 µM
TGI (ACHN renal): > 100 µM
TGI (OVCAR-8 ovarian): > 100 µM
TGI (KM12 colon): > 100 µM
TGI (MALME-3M melanoma): > 100 µM
TGI (T-47D breast): > 100 µM
TGI (UACC-62 melanoma): > 100 µM
TGI (SK-OV-3 ovarian): > 100 µM
TGI (MDA-N): > 100 µM
TGI (MDA-MB-435): > 100 µM
TGI (SNB-19 CNS): > 100 µM
TGI (CCRF-CEM leukemia): > 100 µM
TGI (SNB-75 CNS): > 100 µM
TGI (NCI-H226 lung): > 100 µM
TGI (CAKI-1 renal): > 100 µM
TGI (NCI-H522 lung): > 100 µM
TGI (SK-MEL-28 melanoma): > 100 µM
TGI (BT-549 breast): > 100 µM
TGI (IGROV1 ovarian): > 100 µM
TGI (A498 renal): > 100 µM
TGI (HOP-92 NSCLC): > 100 µM
TGI (OVCAR-4 ovarian): > 100 µM
TGI (SK-MEL-5 melanoma): > 100 µM
TGI (NCI-H460 lung): > 100 µM
TGI (SN12C renal): > 100 µM
TGI (COLO 205 colon): > 100 µM
TGI (MDA-MB-231 breast): > 100 µM
TGI (SR leukemia): > 100 µM
TGI (SW-620 colon): > 100 µM
TGI (PC-3 prostate): > 100 µM
TGI (RPMI-8226 leukemia): > 100 µM
TGI (SF-539 CNS): > 100 µM
TGI (OVCAR-5 ovarian): > 100 µM
TGI (TK-10 renal): > 100 µM
TGI (NCI-H23 lung): > 100 µM
TGI (HCT-116 colon): > 100 µM
TGI (RXF 393 renal): > 100 µM
TGI (MCF7 breast): > 100 µM
TGI (K-562 leukemia): > 100 µM
TGI (SF-295 CNS): > 100 µM
TGI (LOX IMVI melanoma): > 100 µM
TGI (MOLT-4 leukemia): > 100 µM
TGI (M14 melanoma): > 100 µM
TGI (OVCAR-3 ovarian): > 100 µM
TGI (HCC-2998 colon): > 100 µM
TGI (UO-31 renal): > 100 µM
TGI (SF-268 CNS): > 100 µM
TGI (HOP-62 NSCLC): > 100 µM
TGI (UACC-257 melanoma): > 100 µM
TGI (DU-145 prostate): > 100 µM
TGI (HCT-15 colon): > 100 µM
TGI (HT29 colon): > 100 µM
TGI (U251 CNS): > 100 µM
TGI (A549 NSCLC): > 100 µM
TGI (SK-MEL-2 melanoma): > 100 µM
TGI (NCI/ADR-RES ovarian): > 100 µM
TGI (EKVX NSCLC): > 100 µM
TGI (HL-60(TB) leukemia): > 100 µM
